From patent US11014966B2, “Compounds and therapeutics uses thereof” (priority 2016, dated 2021)

Key:
E. coli K12 [1] = type: cell-based; conditions: 20 μM compound, human IgM M86 antibody 25 μg/mL, FC500, Method 1
Protocol: Antibody Recruitment Assay by Flow Cytometry Using Anti-Alpha-Galactosyl IgM Antibody
A secondary FITC labelled anti-human IgM antibody was used to detect binding of anti-alpha-galactosyl to the compound.
(§1) The assays were carried out in polystyrene 96-well U bottom plates (Costar). The 96-well plates were pre-blocked with casein blocking buffer (Thermo Fisher 37528) and then washed three times with (HBSS+/+) (Life Technologies 14025-050) prior to assay. E. coli K12 (Public Health England, NCTC 10538) were grown in LB broth (Fisher BP1426-500) to late exponential phase. Subsequently, the bacteria were centrifuged at 10 000 rpm for 5 minutes and resuspended in HBSS+/+ at a bacterial density of 2*10^9 CFU/mL. […] After a final wash of 3×200 μL HBSS+/+ the bacteria were resuspended in 200 μL HBSS+/+ and evaluated on a FC500 (Beckman Coulter). Bacteria were live gated in the FL-4 channel and median fluorescent shift was recorded in the FL-1 channel. Data from all samples were analysed in the Kaluza software package (Beckman Coulter). […]
(§2) The fold shift over background was calculated by dividing the Median Fluorescent Intensity obtained in the presence 20 μM Examples by the Median Fluorescence Intensity obtained in the absence of Examples. The shift in fluorescence intensity (FITC) occurs due to the binding event at each end of the molecule.

E. coli K12 [2] = type: cell-based; conditions: 20 μM compound, anti-alpha galactosyl IgG purified from human IVIG, 42 μg/mL
Protocol: Antibody Recruitment Assay by Flow Cytometry Using Anti Alpha-Galactosyl IgG Antibody
A secondary FITC labelled anti-human IgG antibody was used to detect binding of alpha-galactosyl to the compound.
as §1, with “and resuspended HBSS+/+ at” for “and resuspended in HBSS+/+ at”
as §2

CCCCCCCCC(=O)N[C@@H](CCNC(=O)c1cc(OCC(=O)NCCCO[C@@H]2OC(CO)[C@@H](O[C@@H]3OC(CO)[C@H](O)C(O[C@H]4OC(CO)[C@H](O)C(O)C4O)C3O)C(O)C2NC(C)=O)cc(-c2cc(OCC(=O)NCCCO[C@@H]3OC(CO)[C@@H](O[C@@H]4OC(CO)[C@H](O)C(O[C@H]5OC(CO)[C@H](O)C(O)C5O)C4O)C(O)C3NC(C)=O)cc(OCC(=O)NCCCO[C@@H]3OC(CO)[C@@H](O[C@@H]4OC(CO)[C@H](O)C(O[C@H]5OC(CO)[C@H](O)C(O)C5O)C4O)C(O)C3NC(C)=O)c2)c1)C(=O)N[C@H](C(=O)N[C@@H](CCN)C(=O)N[C@H]1CCNC(=O)[C@H]([C@@H](C)O)NC(=O)[C@H](CCN)NC(=O)[C@H](CCN)NC(=O)[C@H](CC(C)C)NC(=O)[C@@H](Cc2ccccc2)NC(=O)[C@H](CCN)NC1=O)[C@@H](C)O (some centres unmarked) [Example 10]
Anti-alpha galactosyl IgM recruitment at 20 μM (Median Fold shift over vehicle) (E. coli K12 [1]): 2 fold | Anti-alphagalactosyl IgG recruitment at 20 μM (Median Fold shift over vehicle) (E. coli K12 [2]): 1 fold
